In ChEMBL document CHEMBL1201862, “PubChem BioAssay data set” (2004):
Active and inactive are the calls of the source. Unless noted, the calls are words filed in the database; no cut-off is given here.

How the values were obtained:
Format in all cases: functional
[1] = molecular target: T1, Sphingosine 1-phosphate receptor 1 (Homo sapiens, UniProt P21453)
Fatty acid synthase [2] = molecular target: T2, Fatty acid synthase (Homo sapiens, UniProt P49327); test: FAS thioesterase domain inhibitors, dose response, biochemical, endpoint fluorescence intensity, uHTS hits (AID 624327);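 further: fluorescence from hydrolysis of an O-methyl fluorescein acyl ester substrate by the enzyme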
[3] = molecular target: T3, Sphingosine 1-phosphate receptor 4 (Homo sapiens, UniProt O95977); test: Fluorescence dose response cell-based high throughput screening assay for antagonists of the Sphingosine 1-Phosphate Receptor 4 (S1P4). [Related pubchem assays: 1524 (Confirmation in triplicates.), 1510 (Primary screen.)]
T3 sequence (O95977 whole entry): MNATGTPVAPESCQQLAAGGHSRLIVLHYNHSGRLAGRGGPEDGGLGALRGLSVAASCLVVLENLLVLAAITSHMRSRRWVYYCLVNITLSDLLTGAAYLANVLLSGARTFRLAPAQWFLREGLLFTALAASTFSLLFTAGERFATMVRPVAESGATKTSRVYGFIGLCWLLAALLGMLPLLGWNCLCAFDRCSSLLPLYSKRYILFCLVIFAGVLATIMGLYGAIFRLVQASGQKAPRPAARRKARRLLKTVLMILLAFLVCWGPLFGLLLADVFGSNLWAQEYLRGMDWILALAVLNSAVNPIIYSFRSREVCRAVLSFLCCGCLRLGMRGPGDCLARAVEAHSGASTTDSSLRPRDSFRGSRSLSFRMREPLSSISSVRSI

[4] = nonselective inhibitors of cellular cAMP signaling, dose response, counter-screen for MC4R biased antagonist project, cell-based, TR-FRET cAMP detection (AID 602305);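 further: U2OS cells stimulated with forskolin near its EC80 as the cAMP inducer; potency is for inhibition of forskolin-stimulated cAMP signaling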
[5] = molecular target: T3, Sphingosine 1-phosphate receptor 4; test: Late stage fluorescence dose response cell-based screening assay for antagonists of the Sphingosine 1-Phosphate Receptor 4 (S1P4). [Related pubchem assays: 1524 (Confirmation screen (S1P4 antagonists).), 1510 (Primary screen (S1P4 antagonists).), 1853 (Summary AID (S1P4 antagonists).), 1692 (Dose response screen (S1P4 antagonists).)]
[6] = cytotoxicity in KRAS-transformed pancreatic duct cells, primary screen, cell-based, fluorescence, HTS (AID 431); details: Homo sapiens;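 further: cell line used: HPDE-C7K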
[7] = Luminescent dose response cell-based high throughput screening assay for inhibitors of the Janus kinase 2 mutant JAK2V617F. [Related pubchem assays: 1446 (Primary screen.), 1521 (Confirmation assay.), 1486 (Counter screen.)]
[8] = molecular target: T4, Heat shock factor protein 1 (Mus musculus, UniProt P38532); test: HSF1 potentiators in luciferase reporter cells, confirmation, cell-based, NIH3T3, luminescence, dose retest (AID 435004);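 further: stress induced by proteasome inhibitor MG132 added 30 min after compound; luciferase reporter driven by HSF1 response element in NIH3T3 cells; actives raise luminescence as potentiators of the MG132 stress response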
T4 sequence (P38532 whole entry): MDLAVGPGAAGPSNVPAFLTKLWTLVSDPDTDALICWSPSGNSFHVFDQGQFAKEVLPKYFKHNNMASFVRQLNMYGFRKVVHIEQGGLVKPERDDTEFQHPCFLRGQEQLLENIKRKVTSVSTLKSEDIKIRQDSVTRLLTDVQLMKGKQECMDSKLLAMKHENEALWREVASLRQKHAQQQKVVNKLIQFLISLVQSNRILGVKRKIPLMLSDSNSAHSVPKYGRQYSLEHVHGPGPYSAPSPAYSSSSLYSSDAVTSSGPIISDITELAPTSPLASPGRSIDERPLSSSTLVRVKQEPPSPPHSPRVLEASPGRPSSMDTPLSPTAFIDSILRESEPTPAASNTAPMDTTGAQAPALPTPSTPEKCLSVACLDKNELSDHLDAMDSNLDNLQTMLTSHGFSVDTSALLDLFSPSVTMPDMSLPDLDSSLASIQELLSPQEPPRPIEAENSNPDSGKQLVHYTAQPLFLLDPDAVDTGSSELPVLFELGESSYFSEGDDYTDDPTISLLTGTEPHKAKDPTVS

[9] = cytotoxicity in HPDE-C7 cells, cell-based, fluorescence, HTS (AID 430); details: Homo sapiens
[10] = molecular target: T5, Replicative DNA helicase DnaB (Mycobacterium tuberculosis, UniProt P9WMR3); test: DnaB intein splicing inhibitors, dose response, biochemical, cell-free fluorescence (AID 449749)
T5 sequence (P9WMR3 whole entry): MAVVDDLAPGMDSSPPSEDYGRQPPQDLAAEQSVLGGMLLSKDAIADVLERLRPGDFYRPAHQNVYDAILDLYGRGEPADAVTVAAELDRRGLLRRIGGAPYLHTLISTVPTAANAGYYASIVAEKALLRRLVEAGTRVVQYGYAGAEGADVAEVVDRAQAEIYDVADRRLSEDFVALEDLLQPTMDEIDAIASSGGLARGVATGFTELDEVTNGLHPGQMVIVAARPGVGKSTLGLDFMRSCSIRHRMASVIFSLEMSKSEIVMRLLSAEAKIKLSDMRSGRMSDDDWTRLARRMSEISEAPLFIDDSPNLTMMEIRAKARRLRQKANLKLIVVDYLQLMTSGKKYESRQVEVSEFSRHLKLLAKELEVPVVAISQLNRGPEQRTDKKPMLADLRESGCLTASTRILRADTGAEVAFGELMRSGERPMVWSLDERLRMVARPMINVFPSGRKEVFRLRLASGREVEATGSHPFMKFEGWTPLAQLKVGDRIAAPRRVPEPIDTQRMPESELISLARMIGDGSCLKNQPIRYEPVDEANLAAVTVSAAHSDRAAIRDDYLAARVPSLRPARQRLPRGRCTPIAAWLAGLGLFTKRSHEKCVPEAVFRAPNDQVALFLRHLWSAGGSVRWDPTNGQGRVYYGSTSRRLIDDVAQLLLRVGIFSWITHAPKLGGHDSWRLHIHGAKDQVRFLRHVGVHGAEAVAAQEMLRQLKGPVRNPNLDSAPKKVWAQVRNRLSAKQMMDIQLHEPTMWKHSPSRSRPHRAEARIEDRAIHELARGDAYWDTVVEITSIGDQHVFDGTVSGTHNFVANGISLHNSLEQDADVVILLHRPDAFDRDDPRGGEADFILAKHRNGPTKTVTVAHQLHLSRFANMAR

Melanocortin receptor 4 = Melanocortin receptor 4 (Homo sapiens, UniProt P32245); test: MC4R antagonist potency on cAMP, dose response, cell-based, TR-FRET, biased antagonists (AID 602298);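 further: antagonist potency against agonist-stimulated cAMP production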
Protein RecA = molecular target: T6, Protein RecA (Mycobacterium tuberculosis, UniProt P9WHJ3); test: Fluorescence Cell-Free Homogeneous Dose Retest to Identify Inhibitors of RecA-Intein Splicing Activity. [Related pubchem assays (depositor defined):AID2097, AID2223, AID489010, AID492950]
T6 sequence (P9WHJ3 whole entry): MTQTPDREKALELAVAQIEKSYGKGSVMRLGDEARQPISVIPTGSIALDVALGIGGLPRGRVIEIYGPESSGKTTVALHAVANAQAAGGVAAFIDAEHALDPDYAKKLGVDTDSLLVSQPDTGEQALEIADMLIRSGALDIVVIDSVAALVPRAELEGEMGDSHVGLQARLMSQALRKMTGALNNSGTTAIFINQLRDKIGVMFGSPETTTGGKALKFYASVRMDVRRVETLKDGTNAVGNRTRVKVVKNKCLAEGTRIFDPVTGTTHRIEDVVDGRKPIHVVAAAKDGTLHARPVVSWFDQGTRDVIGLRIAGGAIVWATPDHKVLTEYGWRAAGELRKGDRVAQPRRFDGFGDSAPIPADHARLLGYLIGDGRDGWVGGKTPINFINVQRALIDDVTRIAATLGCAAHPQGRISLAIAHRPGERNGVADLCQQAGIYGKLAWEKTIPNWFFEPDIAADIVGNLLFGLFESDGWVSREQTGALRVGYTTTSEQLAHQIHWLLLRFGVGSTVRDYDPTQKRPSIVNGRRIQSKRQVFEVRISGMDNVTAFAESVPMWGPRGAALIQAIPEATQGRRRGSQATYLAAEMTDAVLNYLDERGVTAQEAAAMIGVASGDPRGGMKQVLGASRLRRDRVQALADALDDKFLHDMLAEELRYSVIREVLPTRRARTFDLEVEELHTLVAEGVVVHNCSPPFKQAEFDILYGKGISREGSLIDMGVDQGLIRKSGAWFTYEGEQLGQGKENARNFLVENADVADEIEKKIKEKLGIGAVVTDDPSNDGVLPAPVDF

Fatty acid synthase [11] = molecular target: T2, Fatty acid synthase; test: FAS thioesterase domain inhibitors, dose response, biochemical, kinetic fluorescence intensity (AID 624326);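 further: rate of fluorescence rise from hydrolysis of a fluorogenic O-methyl fluorescein ester substrate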
[12] = inhibitors of PGC1a acetylation in cells, dose response, cell-based, cherry-picked samples (AID 720514);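 further: potency may reflect raised or lowered acetylation signal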
[13] = molecular target: T3, Sphingosine 1-phosphate receptor 4; test: Late-stage fluorescence-based dose-response cell-based counterscreen assay to identify agonists of the Sphingosine 1-Phosphate Receptor 4 (S1P4): inhibition by S1P4-selective antagonist 0.4 nM.
[14] = molecular target: Sphingosine 1-phosphate receptor 5 (Homo sapiens, UniProt Q9H228); test: Late-stage fluorescence-based dose-response cell-based counterscreen assay to identify agonists of the Sphingosine 1-Phosphate Receptor 4 (S1P4): Sphingosine 1-Phosphate Receptor 5 (S1P5) antagonist assay Set 2.
[15] = molecular target: T3, Sphingosine 1-phosphate receptor 4; test: (§1) Late-stage fluorescence-based dose-response cell-based counterscreen assay to identify agonists of the Sphingosine 1-Phosphate Receptor 4 (S1P4): inhibition by S1P4-selective antagonist […].
[16] = molecular target: T1, Sphingosine 1-phosphate receptor 1; test: Late-stage fluorescence-based dose-response cell-based counterscreen assay to identify agonists of the Sphingosine 1-Phosphate Receptor 4 (S1P4): Sphingosine 1-Phosphate Receptor 1 (S1P1) antagonist assay.
[17] = molecular target: T3, Sphingosine 1-phosphate receptor 4; test: as §1; remark: listed apart in the source
[18] = molecular target: T7, Sphingosine 1-phosphate receptor 3 (Homo sapiens, UniProt Q99500); test: Late-stage fluorescence-based dose-response cell-based counterscreen assay to identify agonists of the Sphingosine 1-Phosphate Receptor 4 (S1P4): Sphingosine 1-Phosphate Receptor 3 (S1P3) agonist assay Set 2.
[19] = cytotoxicity of S1P4 agonist candidates, late-stage follow-up, cytotoxicity control for S1P4 agonist project, cell-based, luminescence, dose response, set 2, assay provider (AID 504875)
[20] = molecular target: T3, Sphingosine 1-phosphate receptor 4; test: Late-stage fluorescence-based dose-response cell-based counterscreen assay to identify agonists of the Sphingosine 1-Phosphate Receptor 4 (S1P4): inhibition by S1P4-selective antagonist 11 nM.
[21] = molecular target: T8, Sphingosine 1-phosphate receptor 2 (Homo sapiens, UniProt O95136); test: Late-stage fluorescence-based dose-response cell-based counterscreen assay to identify agonists of the Sphingosine 1-Phosphate Receptor 4 (S1P4): Sphingosine 1-Phosphate Receptor 2 (S1P2) antagonist assay Set 2.
[22] = molecular target: T8, Sphingosine 1-phosphate receptor 2; test: S1P2 receptor agonists, human, late-stage follow-up, counter-screen for S1P4 agonist project, cell-based, fluorescence, set 2 (AID 504873)
[23] = molecular target: T7, Sphingosine 1-phosphate receptor 3; test: Late-stage fluorescence-based dose-response cell-based counterscreen assay to identify agonists of the Sphingosine 1-Phosphate Receptor 4 (S1P4): Sphingosine 1-Phosphate Receptor 3 (S1P3) antagonist assay Set 2.
[24] = molecular target: T3, Sphingosine 1-phosphate receptor 4; test: Late-stage fluorescence-based dose-response cell-based counterscreen assay to identify agonists of the Sphingosine 1-Phosphate Receptor 4 (S1P4): inhibition by S1P4-selective antagonist 33 nM.
[25] = molecular target: T3, Sphingosine 1-phosphate receptor 4; test: Late-stage fluorescence-based dose-response cell-based counterscreen assay to identify agonists of the Sphingosine 1-Phosphate Receptor 4 (S1P4): inhibition by S1P4-selective antagonist 100 nM.
[26] = molecular target: T3, Sphingosine 1-phosphate receptor 4; test: Late-stage fluorescence dose-response cell-based counterscreen assay to identify agonists of the Sphingosine 1-Phosphate Receptor 4 (S1P4): Sphingosine 1-Phosphate Receptor 4 (S1P4) antagonist assay Set 2.
[27] = molecular target: T1, Sphingosine 1-phosphate receptor 1; test: Late-stage fluorescence-based dose-response cell-based counterscreen assay to identify agonists of the Sphingosine 1-Phosphate Receptor 4 (S1P4): Sphingosine 1-Phosphate Receptor 1 (S1P1) agonist assay Set 2.
[28] = molecular target: T3, Sphingosine 1-phosphate receptor 4; test: Late-stage fluorescence-based dose-response cell-based counterscreen assay to identify agonists of the Sphingosine 1-Phosphate Receptor 4 (S1P4): inhibition by S1P4-selective antagonist control.

T1 sequence (P21453 whole entry, the tested form may be a part): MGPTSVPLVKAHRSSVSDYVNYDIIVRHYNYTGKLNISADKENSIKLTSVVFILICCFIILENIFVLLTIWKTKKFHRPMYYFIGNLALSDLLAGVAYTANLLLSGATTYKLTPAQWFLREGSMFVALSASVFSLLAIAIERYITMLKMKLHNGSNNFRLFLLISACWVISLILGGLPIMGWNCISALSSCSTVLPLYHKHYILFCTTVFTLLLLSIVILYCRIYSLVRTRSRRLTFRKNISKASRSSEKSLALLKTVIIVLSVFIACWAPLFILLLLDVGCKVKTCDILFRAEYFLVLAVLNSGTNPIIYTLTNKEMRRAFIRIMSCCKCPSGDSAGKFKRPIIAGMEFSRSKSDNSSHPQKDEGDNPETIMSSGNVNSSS
T7 sequence (Q99500 whole entry): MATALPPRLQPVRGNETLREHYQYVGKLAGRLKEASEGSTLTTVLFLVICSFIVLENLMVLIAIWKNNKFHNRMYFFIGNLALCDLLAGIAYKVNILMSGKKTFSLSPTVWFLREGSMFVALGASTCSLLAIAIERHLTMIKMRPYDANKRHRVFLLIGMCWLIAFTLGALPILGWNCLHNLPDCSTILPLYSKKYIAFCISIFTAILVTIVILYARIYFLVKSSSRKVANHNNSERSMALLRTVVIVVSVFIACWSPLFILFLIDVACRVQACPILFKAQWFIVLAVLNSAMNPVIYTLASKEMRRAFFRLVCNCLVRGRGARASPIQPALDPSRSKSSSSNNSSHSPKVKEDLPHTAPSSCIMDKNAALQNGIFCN
T2 sequence (P49327 whole entry, the tested form may be a part): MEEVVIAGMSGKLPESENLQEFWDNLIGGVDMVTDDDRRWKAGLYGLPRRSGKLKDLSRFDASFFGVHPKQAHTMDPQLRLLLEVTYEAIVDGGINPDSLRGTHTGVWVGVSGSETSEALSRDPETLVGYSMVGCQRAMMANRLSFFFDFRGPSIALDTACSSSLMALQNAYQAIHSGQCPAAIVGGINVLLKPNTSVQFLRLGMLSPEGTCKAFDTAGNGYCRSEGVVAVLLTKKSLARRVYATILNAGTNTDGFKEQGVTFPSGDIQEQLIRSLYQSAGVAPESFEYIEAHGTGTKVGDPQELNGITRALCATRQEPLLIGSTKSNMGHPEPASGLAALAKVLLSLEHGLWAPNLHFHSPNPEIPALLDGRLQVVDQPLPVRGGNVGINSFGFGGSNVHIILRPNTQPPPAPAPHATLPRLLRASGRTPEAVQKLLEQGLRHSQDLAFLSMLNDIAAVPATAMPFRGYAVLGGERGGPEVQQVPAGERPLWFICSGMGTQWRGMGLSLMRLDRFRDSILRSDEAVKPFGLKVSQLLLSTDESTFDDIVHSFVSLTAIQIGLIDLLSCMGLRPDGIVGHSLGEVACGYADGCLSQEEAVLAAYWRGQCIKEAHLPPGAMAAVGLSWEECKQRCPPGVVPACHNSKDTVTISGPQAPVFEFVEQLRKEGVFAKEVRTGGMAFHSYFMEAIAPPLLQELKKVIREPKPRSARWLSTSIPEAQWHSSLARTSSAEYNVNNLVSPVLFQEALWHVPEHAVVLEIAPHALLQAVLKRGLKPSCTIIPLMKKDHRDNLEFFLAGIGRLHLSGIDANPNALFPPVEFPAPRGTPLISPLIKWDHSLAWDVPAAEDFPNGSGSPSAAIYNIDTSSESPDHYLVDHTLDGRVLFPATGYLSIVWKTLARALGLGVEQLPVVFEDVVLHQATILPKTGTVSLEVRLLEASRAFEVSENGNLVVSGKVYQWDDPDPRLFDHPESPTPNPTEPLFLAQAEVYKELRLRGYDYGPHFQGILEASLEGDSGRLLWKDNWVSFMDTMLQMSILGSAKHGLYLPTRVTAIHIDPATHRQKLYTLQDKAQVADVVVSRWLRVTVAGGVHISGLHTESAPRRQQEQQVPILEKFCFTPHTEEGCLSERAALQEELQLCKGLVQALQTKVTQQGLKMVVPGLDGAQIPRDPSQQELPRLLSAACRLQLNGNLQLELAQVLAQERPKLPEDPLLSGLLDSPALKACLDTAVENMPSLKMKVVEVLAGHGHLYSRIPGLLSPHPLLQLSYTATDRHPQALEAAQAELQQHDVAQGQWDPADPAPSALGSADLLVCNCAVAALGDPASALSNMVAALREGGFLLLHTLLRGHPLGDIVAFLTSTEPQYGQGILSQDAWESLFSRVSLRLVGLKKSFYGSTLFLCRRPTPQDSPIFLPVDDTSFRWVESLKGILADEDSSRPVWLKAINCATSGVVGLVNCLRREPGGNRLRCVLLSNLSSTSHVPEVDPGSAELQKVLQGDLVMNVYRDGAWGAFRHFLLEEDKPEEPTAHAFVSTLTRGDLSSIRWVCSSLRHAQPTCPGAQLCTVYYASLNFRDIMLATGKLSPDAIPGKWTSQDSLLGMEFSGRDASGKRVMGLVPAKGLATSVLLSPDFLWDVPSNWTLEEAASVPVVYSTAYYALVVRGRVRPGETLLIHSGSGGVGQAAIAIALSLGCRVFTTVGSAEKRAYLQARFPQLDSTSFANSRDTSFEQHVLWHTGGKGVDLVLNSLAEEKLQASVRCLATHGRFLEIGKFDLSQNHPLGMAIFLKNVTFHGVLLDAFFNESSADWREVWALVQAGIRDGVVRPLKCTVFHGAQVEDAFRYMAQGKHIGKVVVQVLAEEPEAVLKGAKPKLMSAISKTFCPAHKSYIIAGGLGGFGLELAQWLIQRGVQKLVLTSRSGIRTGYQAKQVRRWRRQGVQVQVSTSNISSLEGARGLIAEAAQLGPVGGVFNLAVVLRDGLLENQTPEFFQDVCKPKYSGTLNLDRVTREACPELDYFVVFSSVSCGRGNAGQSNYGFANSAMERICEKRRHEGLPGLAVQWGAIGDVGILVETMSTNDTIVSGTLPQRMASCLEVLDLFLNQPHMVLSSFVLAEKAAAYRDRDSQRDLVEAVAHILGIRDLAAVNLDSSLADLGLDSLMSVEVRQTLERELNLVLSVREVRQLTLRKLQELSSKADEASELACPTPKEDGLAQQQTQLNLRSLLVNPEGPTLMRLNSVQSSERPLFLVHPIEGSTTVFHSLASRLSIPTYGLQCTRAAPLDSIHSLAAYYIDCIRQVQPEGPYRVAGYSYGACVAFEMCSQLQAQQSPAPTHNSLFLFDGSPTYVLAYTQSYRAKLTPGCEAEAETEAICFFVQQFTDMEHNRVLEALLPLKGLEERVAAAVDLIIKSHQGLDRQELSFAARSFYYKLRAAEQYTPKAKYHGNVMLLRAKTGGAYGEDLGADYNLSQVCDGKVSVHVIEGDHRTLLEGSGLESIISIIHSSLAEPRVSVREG
T8 sequence (O95136 whole entry): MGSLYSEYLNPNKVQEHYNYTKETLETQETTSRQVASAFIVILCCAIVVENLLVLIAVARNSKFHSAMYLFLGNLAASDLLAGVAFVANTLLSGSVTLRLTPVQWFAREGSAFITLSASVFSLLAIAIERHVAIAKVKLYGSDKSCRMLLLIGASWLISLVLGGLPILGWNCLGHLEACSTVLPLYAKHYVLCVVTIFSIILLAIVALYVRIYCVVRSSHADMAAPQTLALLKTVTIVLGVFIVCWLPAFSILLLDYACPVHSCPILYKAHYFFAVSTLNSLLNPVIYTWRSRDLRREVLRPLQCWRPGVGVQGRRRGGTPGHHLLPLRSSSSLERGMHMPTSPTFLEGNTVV
Chain of Melanocortin receptor 4 (P32245 whole entry): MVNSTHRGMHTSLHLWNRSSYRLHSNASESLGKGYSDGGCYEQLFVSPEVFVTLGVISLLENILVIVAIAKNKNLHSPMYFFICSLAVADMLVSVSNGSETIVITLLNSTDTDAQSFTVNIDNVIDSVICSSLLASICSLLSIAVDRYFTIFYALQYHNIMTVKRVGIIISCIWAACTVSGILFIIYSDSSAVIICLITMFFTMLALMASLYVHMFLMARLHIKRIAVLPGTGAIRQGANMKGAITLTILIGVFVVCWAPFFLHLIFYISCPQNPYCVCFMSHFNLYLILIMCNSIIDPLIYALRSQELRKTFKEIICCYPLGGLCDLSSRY
Chain of Sphingosine 1-phosphate receptor 5 (Q9H228 whole entry): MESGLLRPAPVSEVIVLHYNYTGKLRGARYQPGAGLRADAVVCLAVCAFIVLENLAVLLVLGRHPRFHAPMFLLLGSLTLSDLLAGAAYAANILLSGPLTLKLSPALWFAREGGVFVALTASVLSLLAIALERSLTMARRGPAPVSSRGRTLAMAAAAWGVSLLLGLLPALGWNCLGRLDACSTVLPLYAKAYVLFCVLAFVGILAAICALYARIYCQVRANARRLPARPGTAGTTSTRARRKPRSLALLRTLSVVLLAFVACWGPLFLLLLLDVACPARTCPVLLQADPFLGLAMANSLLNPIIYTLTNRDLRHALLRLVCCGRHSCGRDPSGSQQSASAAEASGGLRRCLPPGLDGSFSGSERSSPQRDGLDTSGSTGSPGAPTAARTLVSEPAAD

Compound: Cc1ccccc1CS(=O)(=O)c1nnc([C@H](CC(C)C)NC(=O)OC(C)(C)C)o1
- IC50 [1]: 38.9 µM (not active)
- IC50 (Fatty acid synthase [2]): 12.3 µM (active)
- IC50 [3]: 1.2 µM (active)
- IC50 [4]: > 64.6 µM (inactive)
- IC50 [5]: 2.89 µM (not active)
- EC50 [6]: 11.9 µM (active)
- IC50 [7]: 0.632 µM (active)
- EC50 [8]: > 260 µM (inactive)
- EC50 [9]: 8.56 µM (active)
- AC50 [10]: 93.7 µM (active)
- IC50 (Melanocortin receptor 4): > 64.6 µM (inactive)
- EC50 (Protein RecA): 11.6 µM (active)
- IC50 (Fatty acid synthase [11]): 7.36 µM (active)
- AC50 [12]: 16 µM (active)

Compound: COCC/N=C1\S/C(=C\c2cc(C)n(-c3ccc(F)cc3F)c2C)C(=O)N1C
- EC50 [13]: 0.04 µM (active)
- IC50 [14]: > 25 µM (inactive)
- EC50 [15]: 0.173 µM (active)
- IC50 [16]: > 25 µM (inactive)
- EC50 [17]: > 3.3 µM (inactive)
- EC50 [18]: > 25 µM (inactive)
- CC50 [19]: > 10 µM (inactive)
- EC50 [20]: > 3.3 µM (inactive)
- IC50 [21]: 6.76 µM (active)
- EC50 [22]: > 25 µM (inactive)
- IC50 [23]: ~8.9 µM (active)
- EC50 [24]: > 3.3 µM (inactive)
- EC50 [25]: > 3.3 µM (inactive)
- IC50 [26]: > 25 µM (inactive)
- EC50 [27]: > 25 µM (inactive)
- EC50 [28]: 0.0154 µM (active)
